{"source": "patent US11512073B2", "about": "“Benzimidazole derivatives, pharmaceutical composition comprising the same, and use thereof” (Chongqing University of Arts and Sciences, priority 2020, dated 2022)", "key": {"[1]": {"test_system": "HEK293T cells", "assay": "HA-ubiquitin immunoprecipitation, H2A/H2AX ubiquitination", "assay_type": "cell-based", "conditions": "20 μM compound 7a for 24 h", "protocol": "FIG. 6A: MDA-MB-231 and MDA-MB-468 were treated with indicated concentrations of compound 7a for 48 h, and then the immunofluorescence analysis was performed to detect γH2AX signal, the histone H2AX phosphorylation representing DSBs. Scale bar: 100 μm. FIG. 6B: γH2AX positive cells in (FIG. 6A) were counted and presented in the histogram. FIGS. 6C and 6D: following treatment with different concentrations (FIG. 6C) and times (FIG. 6D) of compound 7a, treated cell were lysed and phosphorylation/activation levels of ATM, NBS1, SMC1, γH2AX were examined by western blotting. Additionally, RNF8 and DNA repair proteins such as BRCA2 and RAD51 were detected using western. β-tubulin was employed as a loading control. […] P62 signal was measured by immunofluorescence analysis. […] HA-Ub was immunoprecipitated with HA binding beads and ubiquitinated H2A/H2AX was detected with anti-H2A/H2AX. […]\nMDA-MB-231 and MDA-MB-468 cells were treated with the compound 7a (0, 5, 10 and 20 μmol/L) for 48 h, total protein was extracted using RIPA buffer (Beyotime, Shanghai, China) supplemented with protease/phosphatase inhibitor cocktail (Roche, Mannheim, Germany) at 4° C. for 30 min. The protein concentration was quantified by the BCA protein assay kit (Beyotime). […] The objective protein signal was obtained using an odyssey two-color infrared fluorescence imaging system (Li-cor, NE, USA). […]"}, "[2]": {"test_system": "TNBC cells", "assay": "Ki67-staining immunofluorescence", "assay_type": "cell-based, Human", "conditions": "48 h, versus controls", "protocol": "Cells were plated on glass coverslips in 24-well plates prior to treatment. After being exposed to different doses of compound 7a for 48 h, cells were washed with PBS for three times, fixed with 4% paraformaldehyde-PBS for 30 min, and then followed by permeabilization with 0.1% Triton X-100 for 10 min. Next, the samples were blocked with QuickBlock Blocking Buffer for Immunol Staining (Beyotime) for 30 min at 37° C., and incubated with anti-Ki67 (1:250), anti-LC3B antibody (1:250), anti-SQSTM1 antibody (1:250) or anti-γH2AX (1:250) overnight at 4° C. After washing with PBS three times, the stained cells were incubated with Alexa Fluor-conjugated secondary antibodies (1:2000) for 1 hour at room temperature. Moreover, 1 mg/mL DAPI dissolved in PBS were employed to label nuclei (30 min). Images were captured with a High Content analysis system (Perkinelmer, MA, USA)."}, "[3]": {"test_system": "HCT116 cells", "assay": "mCherry-GFP-LC3B reporter autophagic flux assay", "assay_type": "cell-based", "conditions": "12 h treatment, versus control", "protocol": "Mcherry-EGFP-LC3B overexpression system was co-transfected with lenviral packaging vectors pSPAX2 and pMD2G into HEK293FT cells using Fugene Transfection Reagent (Promega, MW, USA). Virus particles were collected after 48 h infection, filtered through a 0.22 μm membrane, added into colorectal cancer cell HCT116, and then incubated for 12 h at 37° C. The medium was replaced and HCT116 cells were selected for puromycin tolerance (10 μg/mL) to obtain the stable cells expressing mcherry-EGFP-LC3B."}, "[4]": {"test_system": "MDA-MB-231 and MDA-MB-468 cells", "assay": "Cell cycle analysis by flow cytometry", "assay_type": "cell-based, Human", "conditions": "48 h", "protocol": "Cells in a logarithmic growth phase were harvested and seeded into six-well plates with 30% cell density and cultured overnight in an incubator. Once adhered to the bottom of the plate, cells were treated with different doses of compound 7a for 48 h, and then employed in flow cytometry analysis. For cell cycle assay, the collected cells were washed with phosphate-buffered saline (PBS) and fixed with 70% cold ethanol in 4° C. for 24 h. After washing three times of PBS, the fixed cells were incubated in 200 μL PBS solution containing 1 μL propidium iodide (BD, CA, USA) and 1 μL RNase (Sigma Aldrich, USA) at 37° C. for 0.5 h. Finally, cells were analyzed using BD Accuri™ C6 flow cytometry (BD Biosciences, USA). For the cell apoptosis assay, after the cells were harvested and washed twice with PBS, the percentage of apoptotic cells were measured using an Annexin V-FITC/PI Apoptosis Assay Kit (BD Biosciences, USA). The BD Accuri™ C6 flow cytometry was used to analyze the apoptosis process. The FlowJo software was used to analyze the cell cycle arrest and apoptotic rate."}, "[5]": {"test_system": "TNBC cells", "assay": "Cell counting assay with microscope", "assay_type": "cell-based, Human", "conditions": "48 h", "protocol": "FIG. 2A: cell viability was measured with the MTT assay. MDA-MB-231 and MDA-MB-468 cells were exposed to the indicated concentrations of compound 7a for 24, 48 and 72 h. FIGS. 2B and 2C: cell morphology and cell count of MDA-MB-231 and MDA-MB-468 cells were captured with microscope after treating with the indicated concentrations of compound 7a for 48 h. These cells were visualized with the images and quantitated by histogram, Scale bar, 100 μm. FIGS. 2D and 2E: colony formation assay was performed to evaluate TNBC growth in vitro after treatment with the indicated concentrations of compound 7a for 14 days. The colonies were visualized with the images and quantitated by histogram."}}}
{"smiles": "O=C(NC1CCCCC1)c1[nH]cnc1-c1nc2ccccc2[nH]1", "note": "[Compound 7a]", "values": [{"measurement": "formation of H2A poly-ubiquitin chains", "setting": "[1]", "result": "significantly reduced"}, {"measurement": "rate of Ki67-positive cells", "setting": "[2]", "result": "notably reduced rate of Ki67-positive cells"}, {"measurement": "number of yellow fluorescent vesicles (autophagosomes)", "setting": "[3]", "result": "significant increase in the number of yellow fluorescent vesicles"}, {"measurement": "cell cycle distribution", "setting": "[4]", "result": "induced cell cycle arrest at S-phase"}, {"measurement": "proliferation by cell count", "setting": "[5]", "result": "significantly inhibited proliferation of TNBC cells"}]}
